According to paper PMC9465256, “Discovering monoacylglycerol lipase inhibitors by a combination of fluorogenic substrate assay and activity-based protein profiling” (Frontiers in Pharmacology, 2022):
Where a name gives a salt, the structure may show the parent alone.

How the values were obtained:
Type in all cases: biochemical
human ABHD6 = biological target: T1, human ABHD6 (Homo sapiens, UniProt Q9BV23); experiment: ABHD6 activity assay (AA-HNA fluorogenic substrate); settings: 100 µM, AA-HNA substrate assay, Supplementary Table 2; read-out: ABHD6 Inhibition (%)
T1 construct: expressed in transfected cells; host or cells: HEK293T (transient transfection; membrane fraction)
T1 sequence (Q9BV23 1-337): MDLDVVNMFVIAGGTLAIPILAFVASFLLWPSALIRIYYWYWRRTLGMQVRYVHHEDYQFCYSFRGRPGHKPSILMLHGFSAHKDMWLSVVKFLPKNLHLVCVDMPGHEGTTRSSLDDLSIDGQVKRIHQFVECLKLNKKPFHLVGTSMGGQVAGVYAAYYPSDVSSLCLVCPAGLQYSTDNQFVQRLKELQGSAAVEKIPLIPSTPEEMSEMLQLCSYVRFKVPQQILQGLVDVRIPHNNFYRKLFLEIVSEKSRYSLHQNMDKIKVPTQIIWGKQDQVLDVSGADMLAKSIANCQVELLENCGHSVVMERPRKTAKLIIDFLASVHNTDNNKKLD
Description: (§1) HEK293T cells were cultured at 37°C under 5% CO2 in a DMEM medium with stable glutamine and phenolred, containing 10% fetal bovine serum (FBS, Gibco), penicillin, and streptomycin. The cells were passaged every 2–3 days by resuspension in the medium at ∼90% confluence. The membranes used in this study were prepared from transiently transfected HEK293T cells. Briefly, 1 day prior to transfection, ∼10^7 cells were seeded in 15 cm plates, and then the cells were transfected by the addition of a mixture of polyethyleneimine and plasmid DNA (3:1, 60, and 20 µg) in 2 ml of medium (without serum). Of note, the empty pcDNA3.1 vector was used in the Mock-control. After 24 h, the medium was removed and the cells were refreshed with fresh medium. After 72 h, the cells were harvested by suspending in 20 ml of medium, and the supernatant was removed by centrifugation for 10 min at 1,000 rpm. The cell pellet was flash frozen in liquid nitrogen and stored at −80°C until use. Subsequently, the cell pellets were suspended in lysis buffer (30 mM Tirs, pH 7.5, 1 mM MgCl2, 25 U/ml Benzonase), which was homogenized by sonication (3 × 10 bursts) and incubated for 30 min on ice. The membrane fractions overexpressing MAGL/ABHD6/ABHD12 were separated by ultracentrifuge (100,000 g, 30 min, 4 C). The protein concentration was determined with a Qubit protein assay (Invitrogen). The protein samples were quickly frozen in liquid nitrogen and stored at −80 C until use.
The MAGL activity assay is based on the hydrolysis of 2-arachidonoylglycerol-based fluorogenic substrate by MAGL-overexpressing membrane preparations from transiently transfected HEK293T cells. In brief, the reactions were performed in HEPES buffer (40 mM HEPES, pH 7.5, 0.1 mg/ml BSA) in black, flat bottom 96-well plates. The final protein concentration of membrane fractions from overexpressing human MAGL HEK293T cells was 12.5 μg/ml 5 µl of inhibitors were added from×40 concentrated DMSO stocks in the 96-well plate containing 145 µl assay buffer, followed by the addition of 40 µl of the protein (12.5 μg/ml). After the incubation of the inhibitor-protein complex for 30 min, 10 µl of the fluorogenic substrate (AA-HNA, 200 µM) was added and fluorescence was measured in 1 min intervals for 30 min on a plate reader (BioTek). Final assay concentrations: 12.5 μg/ml MAGL, […], and […] in the total volume of 200 µl. All the measurements were performed in N = 2, n = 2 for inhibitors and N = 2, n = 4 for controls with Z′ value ≥0.6. The slope is determined in 5–15 min for all the experiments.
The ABHD6 activity assay is based on the same principle as the MAGL activity assay described earlier, but with human ABHD6 overexpressing membrane preparations at a final protein concentration of 50 μg/ml and 200 µM AA-HNA. Other conditions are the same as those of the MAGL activity assay.

human ABHD12 = biological target: T2, human ABHD12 (Homo sapiens, UniProt Q8N2K0); experiment: ABHD12 activity by competitive ABPP with FP-TAMRA; settings: 100 µM compound; competitive ABPP with probe FP-TAMRA (250 nM); read-out: ABHD12 Inhibition (%)
T2 construct: expressed in transfected cells; host or cells: HEK293T (transient transfection; membrane fraction)
T2 sequence (Q8N2K0 1-398): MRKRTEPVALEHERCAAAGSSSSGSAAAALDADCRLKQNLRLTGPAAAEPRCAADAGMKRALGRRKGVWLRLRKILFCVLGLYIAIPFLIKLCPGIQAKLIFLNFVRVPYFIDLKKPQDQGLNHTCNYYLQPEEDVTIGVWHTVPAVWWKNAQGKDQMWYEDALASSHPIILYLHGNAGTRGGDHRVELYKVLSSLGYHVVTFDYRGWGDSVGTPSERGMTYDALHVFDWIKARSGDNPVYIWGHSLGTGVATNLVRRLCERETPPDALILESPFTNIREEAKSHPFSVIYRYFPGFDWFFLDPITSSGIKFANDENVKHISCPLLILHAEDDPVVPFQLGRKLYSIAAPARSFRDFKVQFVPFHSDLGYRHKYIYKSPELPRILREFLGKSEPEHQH
Description: as §1
The ABHD12 activity assay is based on competitive activity-based protein profiling (ABPP) with human ABHD12 overexpressing membrane fractions. Briefly, the membrane proteome (1 mg/ml, 20 µl) was incubated at room temperature with 0.5 µl DMSO (vehicle) or inhibitor for 30 min. Subsequently, the samples were treated with the activity-based probe FP-TAMRA (250 nM, final concentration) for 20 min. The reactions were then quenched by 10 µl sample buffer (×4) (final concentrations: 60 mM Tris, pH 6.8, 2% (w/v) SDS, 10% (v/v) glycerol, 5% (v/v) β-mercaptoethanol, 0.01% (v/v) bromophenol blue). The samples were directly loaded and resolved on SDS-PAGE gel (10% acrylamide), which were then scanned using a ChemiDoc MP system (Cy3 settings, BioRad).

human MAGL = biological target: T3, human MAGL (Homo sapiens, UniProt Q99685); experiment: MAGL activity assay (AA-HNA fluorogenic substrate); settings: 100 µM, AA-HNA substrate assay, Supplementary Table 1; read-out: MAGL Inhibition (%)
T3 construct: expressed in transfected cells; host or cells: HEK293T (transient transfection; membrane fraction)
T3 sequence (Q99685 1-303): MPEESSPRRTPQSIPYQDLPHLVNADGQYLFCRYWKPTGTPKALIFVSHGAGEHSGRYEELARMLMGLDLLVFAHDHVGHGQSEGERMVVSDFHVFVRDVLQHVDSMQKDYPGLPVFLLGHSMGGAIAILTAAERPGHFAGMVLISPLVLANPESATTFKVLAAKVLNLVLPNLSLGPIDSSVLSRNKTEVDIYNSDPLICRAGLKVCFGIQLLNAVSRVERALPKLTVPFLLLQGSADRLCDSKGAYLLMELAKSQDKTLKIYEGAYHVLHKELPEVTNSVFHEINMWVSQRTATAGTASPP
Description: as §1
The MAGL activity assay is based on the hydrolysis of 2-arachidonoylglycerol-based fluorogenic substrate by MAGL-overexpressing membrane preparations from transiently transfected HEK293T cells. In brief, the reactions were performed in HEPES buffer (40 mM HEPES, pH 7.5, 0.1 mg/ml BSA) in black, flat bottom 96-well plates. […] After the incubation of the inhibitor-protein complex for 30 min, 10 µl of the fluorogenic substrate (AA-HNA, 200 µM) was added and fluorescence was measured in 1 min intervals for 30 min on a plate reader (BioTek). […] All the measurements were performed in N = 2, n = 2 for inhibitors and N = 2, n = 4 for controls with Z′ value ≥0.6. The slope is determined in 5–15 min for all the experiments.

Compound | activity at 100 µM (human ABHD6) | activity at 100 µM (human ABHD12) | activity at 100 µM (human MAGL) | activity (human ABHD6) | activity (human ABHD12) | activity (human MAGL)
CC1(C)[C@@H](O[C@H]2O[C@H](C(=O)O)[C@@H](O)[C@H](O)[C@H]2O[C@@H]2O[C@H](C(=O)O)[C@@H](O)[C@H](O)[C@H]2O)CC[C@]2(C)[C@H]3C(=O)C=C4[C@@H]5C[C@@](C)(C(=O)O)CC[C@]5(C)CC[C@@]4(C)[C@]3(C)CC[C@@H]12 [compound 33, Glycyrrhizin] | 92.9% | 69.3% | 99.5% | – | – | –
COc1ccc(-c2coc3cc(O)ccc3c2=O)cc1 [compound 31, Formononetin] | 94.1% | 77.5% | 103% | – | – | –
C[C@H](CCC(=O)O)[C@H]1CC[C@H]2[C@@H]3C[C@H](O)[C@@H]4C[C@H](O)CC[C@]4(C)[C@H]3CC[C@]12C [compound 40, Hyodeoxycholic] | – | – | – | 95.4% | 70.8% | 97%
O=C(O)/C=C/c1ccc(O)c(O)c1 [compound 19, Caffeic Acid] | – | – | – | 108% | 83.7% | 90.1%
C=CCc1ccc(O)c(-c2cc(CC=C)ccc2O)c1 [compound 48, Magnolol] | 101% | 107% | 72.2% | – | – | –
C[C@@H]1O[C@@H](O)[C@H](O)[C@H](O)[C@H]1O [compound 45, L-(+)-Rhamnose Monohydrate] | – | – | – | 98.8% | 80.6% | 81.1%
C[N+](C)(C)CC(O)CC(=O)O (racemic) [compound 27, DL-Carnitine HCl] | – | – | – | 88.9% | 76.6% | 97.6%
O=C1CCC[C@@H]2[C@H]3CCCN4CCC[C@@H](CN12)[C@@H]34 [compound 49, (+)-Matrine] | – | – | – | 98.3% | 84.4% | 85.4%
CN(C)Cc1c[nH]c2ccccc12 [compound 35, Gramine] | 99% | 82.7% | 97.3% | – | – | –
COc1ccc(CCC(=O)c2c(O)cc(O[C@@H]3O[C@H](CO)[C@@H](O)[C@H](O)[C@H]3O[C@@H]3O[C@@H](C)[C@H](O)[C@@H](O)[C@H]3O)cc2O)cc1O [compound 56, Neohesperidin dihydrochalcone] | 105% | 83.1% | 87.4% | – | – | –
C[C@@H]1O[C@@H](OC[C@H]2O[C@@H](Oc3c(-c4ccc(O)c(O)c4)oc4cc(O)cc(O)c4c3=O)[C@H](O)[C@@H](O)[C@@H]2O)[C@H](O)[C@H](O)[C@H]1O [compound 72, Rutin] | 119% | 84.3% | 75.9% | – | – | –
O=c1c(O)c(-c2ccc(O)cc2O)oc2cc(O)cc(O)c12 [compound 51, Morin hydrate] | – | – | – | 99.4% | 31.6% | 49.4%
C=C1C(=O)O[C@H]2[C@H]1CC/C(C)=C/CC[C@@]1(C)O[C@@H]21 [compound 65, (-)-Parthenolide] | – | – | – | 105% | 92.4% | 87.5%
Methyl-Hesperidin [compound 50] | – | – | – | 94.2% | 76.8% | 62.5%
C=C1CC[C@@H]2[C@](C)(CO)[C@H](O)CC[C@@]2(C)[C@@H]1C/C=C1/C(=O)OC[C@H]1O [compound 8, Andrographolide] | 81.8% | 61.9% | 83.5% | – | – | –
O=C(O[C@@H]1Cc2c(O)cc(O)cc2O[C@@H]1c1cc(O)c(O)c(O)c1)c1cc(O)c(O)c(O)c1 [compound 2, (-)-Epigallocatechin Gallate] | 95% | 59.6% | 38.9% | – | – | –
